≈ marks a conversion by molar mass, not a printed value. Calls of active or inactive are those of the source. No cut-off for these calls is given here.
How the values were obtained:
Candida parapsilosis = test: Antifungal activity against Candida parapsilosis after 48 hrs by spectrophotometry; type: functional; conditions: Lodderomyces parapsilosis
Aspergillus fumigatus = test: Antifungal activity against Aspergillus fumigatus after 48 hrs by spectrophotometry; type: functional
Trichophyton rubrum = test: Antifungal activity against Trichophyton rubrum after 48 hrs by spectrophotometry; type: functional
Cryptococcus neoformans = test: Antifungal activity against Cryptococcus neoformans after 48 hrs by spectrophotometry; type: functional
Nakaseomyces glabratus = test: Antifungal activity against Candida glabrata after 48 hrs by spectrophotometry; type: functional
Candida albicans [1] = test: Antifungal activity against Candida albicans after 48 hrs by spectrophotometry; type: functional
Nannizzia gypsea = test: Antifungal activity against Microsporum gypseum after 48 hrs by spectrophotometry; type: functional
Candida albicans [2] = test: Antifungal activity against Candida albicans SC5314 assessed as inhibition of yeast to hypha transisition at >1 ug/ml after 3 hrs measured as decrease in hyphae; type: functional, organism-based
Candida albicans [3] = test: Antifungal activity against fluconazole-resistant Candida albicans 0710922 after 48 hrs by spectrophotometry; type: functional; conditions: Candida albicans, 0710922, 48 h
Caenorhabditis elegans = test: Growth inhibition of Caenorhabditis elegans at 1 to 160 ug/ml after 6 days; type: functional, organism-based
Candida albicans [4] = test: Antifungal activity against Candida albicans SC5314 assessed as inhibition of yeast to hypha transisition at >1 ug/ml after 3 hrs measured as increase in yeast cells; type: functional, organism-based
Candida albicans [5] = test: Antifungal activity against Candida albicans SC5314 assessed as inhibition of yeast to hypha transisition at >1 ug/ml after 3 hrs measured as increase in pseudohyphal cells; type: functional, organism-based
Candida albicans [6] = test: Antifungal activity against fluconazole-resistant Candida albicans 103 after 48 hrs by spectrophotometry; type: functional; conditions: Candida albicans, 103, 48 h
Candida albicans [7] = test: Antifungal activity against fluconazole-resistant Candida albicans 805 after 48 hrs by spectrophotometry; type: functional; conditions: Candida albicans, 805, 48 h
Candida albicans [8] = test: Antifungal activity against Candida albicans after 48 hrs by spectrophotometry relative to fluconazole; type: functional

Compound	MIC80 (Candida parapsilosis)	MIC80 (Aspergillus fumigatus)	MIC80 (Trichophyton rubrum)	MIC80 (Cryptococcus neoformans)	MIC80 (Nakaseomyces glabratus)	MIC80 (Candida albicans [1])	MIC80 (Nannizzia gypsea)	inhibition (Candida albicans [2])	MIC50 (Candida albicans [3])	MIC80 (Candida albicans [3])	inhibition (Caenorhabditis elegans)	inhibition (Candida albicans [4])	inhibition (Candida albicans [5])	MIC50 (Candida albicans [6])	MIC80 (Candida albicans [6])	MIC50 (Candida albicans [7])	MIC80 (Candida albicans [7])	Ratio (Candida albicans [8])
CCc1ccc(-c2nnc(C3CCN(CC(O)(Cn4cncn4)c4ccc(F)cc4F)CC3)o2)cc1 (stereo not drawn)	2 µg/mL (≈ 4.04 µM)	4 µg/mL (≈ 8.09 µM)	4 µg/mL (≈ 8.09 µM)	2 µg/mL (≈ 4.04 µM)	4 µg/mL (≈ 8.09 µM)	0.5 µg/mL (≈ 1.01 µM)	4 µg/mL (≈ 8.09 µM)	–	–	–	–	–	–	–	–	–	–	–
OC(CN1CCC(c2nnc(-c3ccccc3F)o2)CC1)(Cn1cncn1)c1ccc(F)cc1F (stereo not drawn)	0.5 µg/mL (≈ 1.03 µM)	1 µg/mL (≈ 2.06 µM)	2 µg/mL (≈ 4.13 µM)	≤ 0.125 µg/mL	1 µg/mL (≈ 2.06 µM)	0.125 µg/mL (≈ 0.258 µM)	2 µg/mL (≈ 4.13 µM)	–	–	–	–	–	–	–	–	–	–	–
OC(CN1CCC(c2nnc(-c3cccnc3)o2)CC1)(Cn1cncn1)c1ccc(F)cc1F (stereo not drawn)	1 µg/mL (≈ 2.14 µM)	4 µg/mL (≈ 8.56 µM)	4 µg/mL (≈ 8.56 µM)	0.5 µg/mL (≈ 1.07 µM)	4 µg/mL (≈ 8.56 µM)	0.125 µg/mL (≈ 0.267 µM)	4 µg/mL (≈ 8.56 µM)	–	–	–	–	–	–	–	–	–	–	–
Cc1cccc(-c2nnc(C3CCN(CC(O)(Cn4cncn4)c4ccc(F)cc4F)CC3)o2)c1 (stereo not drawn)	2 µg/mL (≈ 4.16 µM)	2 µg/mL (≈ 4.16 µM)	2 µg/mL (≈ 4.16 µM)	1 µg/mL (≈ 2.08 µM)	2 µg/mL (≈ 4.16 µM)	0.25 µg/mL (≈ 0.52 µM)	0.5 µg/mL (≈ 1.04 µM)	–	–	–	–	–	–	–	–	–	–	–
OC(CN1CCC(c2nnc(-c3cccc4ccccc34)o2)CC1)(Cn1cncn1)c1ccc(F)cc1F (stereo not drawn)	8 µg/mL (≈ 15.5 µM)	8 µg/mL (≈ 15.5 µM)	4 µg/mL (≈ 7.74 µM)	4 µg/mL (≈ 7.74 µM)	8 µg/mL (≈ 15.5 µM)	1 µg/mL (≈ 1.94 µM)	8 µg/mL (≈ 15.5 µM)	–	–	–	–	–	–	–	–	–	–	–
OC(CN1CCC(c2nnc(-c3ccc(C(F)(F)F)cc3)o2)CC1)(Cn1cncn1)c1ccc(F)cc1F (stereo not drawn)	0.5 µg/mL (≈ 0.935 µM)	2 µg/mL (≈ 3.74 µM)	1 µg/mL (≈ 1.87 µM)	0.25 µg/mL (≈ 0.468 µM)	2 µg/mL (≈ 3.74 µM)	0.031 µg/mL (≈ 0.058 µM)	1 µg/mL (≈ 1.87 µM)	Active	0.125 µg/mL (≈ 0.234 µM)	16 µg/mL (≈ 29.9 µM)	inactive	Active	Active	0.25 µg/mL (≈ 0.468 µM)	8 µg/mL (≈ 15 µM)	0.0625 µg/mL (≈ 0.117 µM)	16 µg/mL (≈ 29.9 µM)	8
OC(CN1CCC(c2nnc(-c3ccc(Cl)cc3)o2)CC1)(Cn1cncn1)c1ccc(F)cc1F (stereo not drawn)	4 µg/mL (≈ 7.99 µM)	8 µg/mL (≈ 16 µM)	8 µg/mL (≈ 16 µM)	1 µg/mL (≈ 2 µM)	8 µg/mL (≈ 16 µM)	0.5 µg/mL (≈ 0.998 µM)	64 µg/mL (≈ 128 µM)	–	–	–	–	–	–	–	–	–	–	–
OC(CN1CCC(c2nc(-c3ccc(C(F)(F)F)cc3F)no2)CC1)(Cn1cncn1)c1ccc(F)cc1F (stereo not drawn)	2 µg/mL (≈ 3.62 µM)	4 µg/mL (≈ 7.24 µM)	1 µg/mL (≈ 1.81 µM)	2 µg/mL (≈ 3.62 µM)	4 µg/mL (≈ 7.24 µM)	1 µg/mL (≈ 1.81 µM)	0.5 µg/mL (≈ 0.905 µM)	–	–	–	–	–	–	–	–	–	–	–
COc1ccc(-c2noc(C3CCN(CC(O)(Cn4cncn4)c4ccc(F)cc4F)CC3)n2)cc1 (stereo not drawn)	0.25 µg/mL (≈ 0.504 µM)	1 µg/mL (≈ 2.01 µM)	0.5 µg/mL (≈ 1.01 µM)	0.25 µg/mL (≈ 0.504 µM)	1 µg/mL (≈ 2.01 µM)	0.016 µg/mL (≈ 0.0322 µM)	2 µg/mL (≈ 4.03 µM)	Active	0.125 µg/mL (≈ 0.252 µM)	16 µg/mL (≈ 32.2 µM)	inactive	Active	Active	0.25 µg/mL (≈ 0.504 µM)	4 µg/mL (≈ 8.06 µM)	0.125 µg/mL (≈ 0.252 µM)	8 µg/mL (≈ 16.1 µM)	8
OC(CN1CCC(c2nnc(-c3ccccc3)o2)CC1)(Cn1cncn1)c1ccc(F)cc1F (stereo not drawn)	0.5 µg/mL (≈ 1.07 µM)	2 µg/mL (≈ 4.29 µM)	1 µg/mL (≈ 2.14 µM)	0.25 µg/mL (≈ 0.536 µM)	2 µg/mL (≈ 4.29 µM)	0.125 µg/mL (≈ 0.268 µM)	1 µg/mL (≈ 2.14 µM)	–	–	–	–	–	–	–	–	–	–	–
COc1cccc(-c2noc(C3CCN(CC(O)(Cn4cncn4)c4ccc(F)cc4F)CC3)n2)c1 (stereo not drawn)	4 µg/mL (≈ 8.06 µM)	4 µg/mL (≈ 8.06 µM)	4 µg/mL (≈ 8.06 µM)	2 µg/mL (≈ 4.03 µM)	4 µg/mL (≈ 8.06 µM)	1 µg/mL (≈ 2.01 µM)	4 µg/mL (≈ 8.06 µM)	–	–	–	–	–	–	–	–	–	–	–
Cc1ccc(-c2noc(C3CCN(CC(O)(Cn4cncn4)c4ccc(F)cc4F)CC3)n2)cc1 (stereo not drawn)	2 µg/mL (≈ 4.16 µM)	4 µg/mL (≈ 8.32 µM)	2 µg/mL (≈ 4.16 µM)	4 µg/mL (≈ 8.32 µM)	4 µg/mL (≈ 8.32 µM)	0.5 µg/mL (≈ 1.04 µM)	8 µg/mL (≈ 16.6 µM)	–	–	–	–	–	–	–	–	–	–	–
COc1ccc(-c2nnc(C3CCN(CC(O)(Cn4cncn4)c4ccc(F)cc4F)CC3)o2)cc1 (stereo not drawn)	1 µg/mL (≈ 2.01 µM)	2 µg/mL (≈ 4.03 µM)	1 µg/mL (≈ 2.01 µM)	0.5 µg/mL (≈ 1.01 µM)	2 µg/mL (≈ 4.03 µM)	0.063 µg/mL (≈ 0.127 µM)	1 µg/mL (≈ 2.01 µM)	–	–	–	–	–	–	–	–	–	–	–

Reference: ChEMBL document CHEMBL3734719, “Discovery of highly potent triazoleantifungal agents with piperidine-oxadiazole side chains” (2015)
